Assay results taken from publication PMC8636514, “Therapeutic potential of TRPM8 antagonists in prostate cancer” (Scientific Reports, 2021).

Experiments:
AR/TRPM8 complex = biological target: T1, AR/TRPM8 complex (Homo sapiens, UniProt Q7Z2W7); test: Co-IP of AR with TRPM8 in LNCaP cells; format: cell-based; details: for androgen-induced Co-IP of AR with TRPM8: 10 nM R1881, 10 min, compound 1 μM; for AR in IP anti-AR, Average (n=3) / TRPM8 in IP anti-AR, Average (n=3): Fig 6d lower panel; for AR, Average (n=3) / TRPM8, Average (n=3): Fig 6e, R1881 alone
T1 construct: We here dissected an endogenous non-genomic mechanism of the TRPM8 channel regulation by androgens in PC cells; endogenous in cells; host or cells: LNCaP cells
T1 sequence (Q7Z2W7 whole entry, one chain of several): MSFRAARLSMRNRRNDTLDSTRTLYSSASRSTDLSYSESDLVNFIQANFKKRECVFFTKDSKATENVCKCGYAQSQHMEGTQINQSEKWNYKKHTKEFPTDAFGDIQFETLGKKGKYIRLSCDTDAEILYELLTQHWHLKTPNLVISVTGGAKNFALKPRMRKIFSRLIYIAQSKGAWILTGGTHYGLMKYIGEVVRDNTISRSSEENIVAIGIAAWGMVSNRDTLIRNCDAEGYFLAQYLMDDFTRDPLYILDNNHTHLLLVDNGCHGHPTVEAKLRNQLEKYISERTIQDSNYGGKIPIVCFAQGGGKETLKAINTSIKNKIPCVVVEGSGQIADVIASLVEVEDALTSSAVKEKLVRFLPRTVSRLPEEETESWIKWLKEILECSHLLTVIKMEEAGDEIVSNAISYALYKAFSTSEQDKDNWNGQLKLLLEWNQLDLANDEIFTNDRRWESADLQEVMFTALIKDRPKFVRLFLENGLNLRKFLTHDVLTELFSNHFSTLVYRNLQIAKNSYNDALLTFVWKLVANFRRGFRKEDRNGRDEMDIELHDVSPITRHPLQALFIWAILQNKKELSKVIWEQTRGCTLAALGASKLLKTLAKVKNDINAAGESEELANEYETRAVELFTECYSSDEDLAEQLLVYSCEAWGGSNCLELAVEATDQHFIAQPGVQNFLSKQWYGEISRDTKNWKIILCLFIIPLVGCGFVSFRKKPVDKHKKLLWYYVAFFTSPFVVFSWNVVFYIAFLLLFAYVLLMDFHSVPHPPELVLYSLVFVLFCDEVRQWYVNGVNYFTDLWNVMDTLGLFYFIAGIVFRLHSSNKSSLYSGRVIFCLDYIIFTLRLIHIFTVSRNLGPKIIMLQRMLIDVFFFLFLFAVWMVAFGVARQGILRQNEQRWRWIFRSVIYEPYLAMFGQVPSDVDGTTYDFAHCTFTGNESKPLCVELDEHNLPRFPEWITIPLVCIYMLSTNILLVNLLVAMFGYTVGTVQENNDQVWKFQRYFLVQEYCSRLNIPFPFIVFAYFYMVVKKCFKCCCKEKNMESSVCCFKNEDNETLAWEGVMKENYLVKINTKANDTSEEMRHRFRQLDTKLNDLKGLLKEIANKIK
Text: (§1) All performed as reported. The mouse monoclonal anti-AR (441; Santa Cruz) antibody was used in Co-Ip or WB approaches. TRPM8 was detected using the rabbit polyclonal anti-TRPM8 (NBP1-97311; Novus Biological). […] The rabbit polyclonal anti-ERK (C-14; Santa Cruz), antibody was used to detect total ERK. FAK and P-Tyr397 FAK were detected using the mouse monoclonal anti-FAK (Clone 77/610077 BD Transduction Laboratories) or anti P-Tyr397 FAK (Clone 14/611722; BD Transduction Laboratories) antibodies, respectively. P-Tyr118 paxillin and total paxillin were detected using the rabbit polyclonal anti-P-Y118 (#2541, Cell Signaling) or the mouse monoclonal anti-paxillin (clone 349; BD Biosciences) antibodies, respectively. […] P-Tyr 416 Src and Src were detected using the rabbit monoclonal anti P-Tyr 416 Src (#6943; Cell Signaling) or the mouse monoclonal anti Src (Calbiochem) antibodies, respectively. ERα and ERβ were detected using the rabbit polyclonal anti-ERα (543; Santa Cruz) or anti-ERβ (Upstate Biotechnology, U.S.A.) antibodies. Cyclin D1, p27 and Cdk4 were stained using the mouse monoclonal anti-cyclin D1 (clone AM29; from Zymed Laboratories Inc.), the rabbit polyclonal anti-p27 (C-19; Santa Cruz) or anti Cdk-4 (c-22; Santa Cruz) antibodies, respectively. The mouse monoclonal anti-tubulin (Sigma-Aldrich) antibody was used to detect tubulin. The ECL system (GE Healthcare) was employed to reveal immune-reactive proteins. Densitometric analysis of WB was performed by using Image J Software (https://imagej.nih.gov/ij).

LNCaP cells [1] = test: Fluorescent Ca2+ imaging (Fluo 4-AM) in LNCaP cells; format: cell-based, human; details: for androgen-induced increase of intracellular Ca2+ levels: 10 nM R1881, 240 s, compound 1 μM
Method: LNCaP cells in 6 multi-wells were made quiescent and incubated for 60 min at 37 °C with 1 µM 4-Fluo AM (Abcam, ab241082). Cells were washed twice with Hank’s Balanced salt solution (HBSS) to remove any dye non-specifically associated with the cell surface. They were incubated with medium for 30 min to allow complete de-esterification of intracellular AM esters, and then left untreated or treated for 240 s with 10 nM R1881, in the absence or presence of the indicated compounds. Different fields were analyzed using DMIRB Leica (Leica) microscope equipped with C-Plan × 40 or HCX PL Fluotar × 63 objectives (Leica). IF microscopy images were generated using a DFC 450C camera (Leica).

FAK, paxillin = test: Western blot of FAK activation and paxillin phosphorylation in LNCaP cells; format: cell-based, human; details: for androgen-elicited FAK activation and paxillin phosphorylation: 10 nM R1881, 10 min; for androgen-elicited FAK activation and paxillin phosphorylation / FAK or paxillin phosphorylation when used alone: compound 1 μM; for FAK or paxillin phosphorylation when used alone: no R1881
Text: as §1

LNCaP cell spheroids = test: 3D culture in ECM, LNCaP cell spheroid size; format: cell-based, human; details: for androgen-induced increase of spheroid size / spheroid size in the absence of hormone: 15 days; for spheroid size in the absence of hormone: compound 1 μM alone
Method: LNCaP cell spheroids were generated as reported. Briefly, 2 × 10^4 LNCaP cells were mixed with 200 μL of phenol-red free growth factor-reduced Matrigel and 50 μL of organoid plating medium in each well. The mixture was pipetted in 24-well plate and allowed to solidify for 45 min at 37 °C, before the addition of 400 μL organoid plating-medium, which was made using phenol red-free DMEM/F12 medium, containing 7% CSS, penicillin (100 U/mL), streptomycin (100 U/mL), diluted GlutaMAX 100X (Gibco), 10 mM Hepes, B27 supplement (50 × stock solution; Thermofisher, Waltham, Massachusetts, USA), […] nicotinamide (Sigma-Aldrich), […] N-acetylcysteine (Sigma-Aldrich) and 10 μM Y-27632 (Millipore, Burlington, MA, USA). After 3 days, the organoid-plating medium was replaced with a similar medium in the absence of N-acetylcysteine and Y-27632. At the 3rd day, spheroids/organoids were untreated or treated with the indicated compounds. The medium was changed every 3 days and fields were analyzed by phase-contrast microscopy.
In wound scratch assay, different fields were analysed using DMIRB inverted microscope (Leica) equipped with N-Plan 10 × objective (Leica), as reported. LNCaP organoids were analysed using the same microscope equipped with C-Plan 40 × or HCX PL Fluotar 63 × objectives (Leica). Images were captured using a DFC 450C camera (Leica) and acquired using the Application Suite Software (Leica). They are representative of three different experiments. The relative organoid size was calculated using the same software and expressed as a fold increase over the basal organoid size (measured at 3th day). The wound gap was calculated using Image J Software and expressed as % of the decrease in the wound area. Migrating or invading cells from at least 30 fields/each membrane were scored, using a DMLB (Leica) fluorescent microscope, equipped with HCPL Fluotar 20 × objective.

AR = test: Western blot of AR in LNCaP lysate proteins; format: cell-based, human; details: for AR in lysates, Average (n=3): Fig 6d upper panel
Text: as §1

LNCaP cells [2] = test: DNA synthesis (BrdU incorporation) in LNCaP cells; format: cell-based, human; details: for effect on DNA synthesis stimulated by R1881: 1 nM R1881, compound 1 μM; for inhibitory effect on R1881-stimulated DNA synthesis, compared with 3 and 5: 10 nM R1881, compound 1 μM
Method: […] Cells were fixed, permeabilized, washed and the BrdU incorporation was analysed as reported. Nuclei were stained with Hoechst and cells on coverslips were scored by IF microscopy, using a DMLB Leica (Leica) fluorescent microscope, equipped with HCX PL Apo 63 × oil objective. Different fields from each coverslip were analyzed and BrdU incorporation was calculated by the formula: percentage of BrdU-positive cells = (No. of BrdU-positive cells/No. of total cells) × 100. Data in the graphs derive from at least 1000 scored cells for each coverslip. Representative images were captured using DC480 camera (Leica) and acquired using Leica Suite software. They are representative of three different experiments.

TRPM8 = test: Western blot of TRPM8 in LNCaP lysate proteins; format: cell-based, human; details: for TRPM8 in lysates, Average (n=3): Fig 6d upper panel
Text: as §1

cyclin D1 = test: Western blot of cyclin D1 in LNCaP cells; format: cell-based, human; details: for Cyclin D1, fold increase over the basal level: 15 h; for androgen-induced up-regulation of cyclin D1: R1881, compound 1 μM
Text: as §1

Cdk4 = test: Western blot of Cdk4 in LNCaP cells; format: cell-based, human; details: 15 h
Text: as §1

[3] = 1 nM R1881 + compound 1 μM, Fig 2e-f
[4] = 10 nM R1881 + compound 1 μM, Fig 2d
[5] = fourth group of list (probably IP anti-AR)

Compound: c1ccc(COc2ccc3[nH]cc(CCNCc4ccc(Oc5ccccc5)cc4)c3c2)cc1 [Compound 4]
- androgen-induced Co-IP of AR with TRPM8 (AR/TRPM8 complex): abolished this association
- AR in IP anti-AR, Average (n=3) (AR/TRPM8 complex; 10 nM R1881 + compound 1 μM): 1,1
- TRPM8 in IP anti-AR, Average (n=3) (AR/TRPM8 complex; 10 nM R1881 + compound 1 μM): 0,7
- AR in IP anti-AR, Average (n=3) (AR/TRPM8 complex; compound 1 μM alone): 1,1
- TRPM8 in IP anti-AR, Average (n=3) (AR/TRPM8 complex; compound 1 μM alone): 0,3
- AR/TRPM8 complex assembly in the absence of hormone (AR/TRPM8 complex; compound 1 μM alone): did not affect
- androgen-induced increase of intracellular Ca2+ levels (LNCaP cells [1]): reduced the androgen effect
- androgen-elicited FAK activation and paxillin phosphorylation (FAK, paxillin): impaired
- FAK or paxillin phosphorylation when used alone (FAK, paxillin): did not affect
- androgen-induced increase of spheroid size (LNCaP cell spheroids; 1 nM R1881, compound 1 µM): reverted
- androgen-induced increase of spheroid size (LNCaP cell spheroids; 10 nM R1881, compound 1 μM): abolished
- spheroid size in the absence of hormone (LNCaP cell spheroids): leaving unaffected
- AR in lysates, Average (n=3) (AR; 10 nM R1881 + compound 1 μM): 0,9
- AR in lysates, Average (n=3) (AR; compound 1 μM alone): 0,9
- effect on DNA synthesis stimulated by R1881 (LNCaP cells [2]): reverted
- inhibitory effect on R1881-stimulated DNA synthesis, compared with 3 and 5 (LNCaP cells [2]): stronger
- TRPM8 in lysates, Average (n=3) (TRPM8; 10 nM R1881 + compound 1 μM): 1
- TRPM8 in lysates, Average (n=3) (TRPM8; compound 1 μM alone): 1
- Cyclin D1, fold increase over the basal level (cyclin D1; [3]): 0,9 fold
- androgen-induced up-regulation of cyclin D1 (cyclin D1): significantly impair
- Cdk4, fold increase over the basal level (Cdk4; [3]): 1 fold

Compound: COC(=O)[C@H](Cc1c[nH]c2ccccc12)N(Cc1ccccc1)Cc1ccccc1 [Compound 6]
- androgen-induced Co-IP of AR with TRPM8 (AR/TRPM8 complex): abolished this association
- AR in IP anti-AR, Average (n=3) (AR/TRPM8 complex; 10 nM R1881 + compound 1 μM): 1
- TRPM8 in IP anti-AR, Average (n=3) (AR/TRPM8 complex; 10 nM R1881 + compound 1 μM): 0,6
- AR in IP anti-AR, Average (n=3) (AR/TRPM8 complex; compound 1 μM alone): 1,1
- TRPM8 in IP anti-AR, Average (n=3) (AR/TRPM8 complex; compound 1 μM alone): 0,3
- AR/TRPM8 complex assembly in the absence of hormone (AR/TRPM8 complex; compound 1 μM alone): did not affect
- androgen-induced increase of intracellular Ca2+ levels (LNCaP cells [1]): reduced the androgen effect
- androgen-elicited FAK activation and paxillin phosphorylation (FAK, paxillin): impaired
- FAK or paxillin phosphorylation when used alone (FAK, paxillin): did not affect
- androgen-induced increase of spheroid size (LNCaP cell spheroids; 1 nM R1881, compound 1 µM): reverted
- androgen-induced increase of spheroid size (LNCaP cell spheroids; 10 nM R1881, compound 1 μM): abolished
- spheroid size in the absence of hormone (LNCaP cell spheroids): leaving unaffected
- AR in lysates, Average (n=3) (AR; 10 nM R1881 + compound 1 μM): 1,1
- AR in lysates, Average (n=3) (AR; compound 1 μM alone): 0,9
- effect on DNA synthesis stimulated by R1881 (LNCaP cells [2]): reverted
- inhibitory effect on R1881-stimulated DNA synthesis, compared with 3 and 5 (LNCaP cells [2]): stronger
- TRPM8 in lysates, Average (n=3) (TRPM8; 10 nM R1881 + compound 1 μM): 1
- TRPM8 in lysates, Average (n=3) (TRPM8; compound 1 μM alone): 1,1
- Cyclin D1, fold increase over the basal level (cyclin D1; [3]): 0,9 fold
- Cyclin D1, fold increase over the basal level (cyclin D1; [4]): 1,2 fold
- androgen-induced up-regulation of cyclin D1 (cyclin D1): significantly impair
- Cdk4, fold increase over the basal level (Cdk4; [3]): 1,1 fold
- Cdk4, fold increase over the basal level (Cdk4; [4]): 1,1 fold

Compound: C[C@]1(O)CC[C@H]2[C@@H]3CCC4=CC(=O)CCC4=C3C=C[C@@]21C [Compound R1881, reference compound]
- AR, Average (n=3) (AR/TRPM8 complex; [5]): 1
- TRPM8, Average (n=3) (AR/TRPM8 complex; [5]): 3,1
- AR, Average (n=3) (AR/TRPM8 complex; second group of list): 0,1
- TRPM8, Average (n=3) (AR/TRPM8 complex; second group of list): 0,1
- AR, Average (n=3) (AR/TRPM8 complex; third group of list): 1
- TRPM8, Average (n=3) (AR/TRPM8 complex; third group of list): 0
- AR in IP anti-AR, Average (n=3) (AR/TRPM8 complex; 10 nM R1881 alone, 10 min): 1
- TRPM8 in IP anti-AR, Average (n=3) (AR/TRPM8 complex; 10 nM R1881 alone, 10 min): 2,9
- intracellular Ca2+ levels (LNCaP cells [1]; 10 nM R1881 alone, within 240 s): increased
- FAK activation and paxillin phosphorylation (FAK, paxillin; 10 nM R1881 alone, within 10 min): triggered
- response on spheroid size (LNCaP cell spheroids; 1 nM R1881 alone): only a weak response
- AR, Average (n=3) (AR; Fig 6e, first group of list (section not labelled, probably lysates), R1881 alone): 1
- AR in lysates, Average (n=3) (AR; 10 nM R1881 alone, 10 min): 1
- increase of the DNA synthesis (LNCaP cells [2]; 1 nM R1881 alone): ~2 folds
- increase in BrdU incorporation (LNCaP cells [2]; 10 nM R1881 alone): ~3,5 folds
- amount of TRPM8 (Western blot) (TRPM8; 10 nM R1881, 24 h, quiescent LNCaP cells): very weakly increased
- TRPM8, Average (n=3) (TRPM8; Fig 6e, R1881 alone): 1
- TRPM8 in lysates, Average (n=3) (TRPM8; 10 nM R1881 alone, 10 min): 0,9
- Cyclin D1, fold increase over the basal level (cyclin D1; 1 nM R1881 alone, Fig 2e): 1,5 fold
- Cyclin D1, fold increase over the basal level (cyclin D1; 1 nM R1881 alone, Fig 2f): 1,7 fold
- Cyclin D1, fold increase over the basal level (cyclin D1; 10 nM R1881 alone, Fig 2d): 2,7 fold
- Cdk4, fold increase over the basal level (Cdk4; 1 nM R1881 alone, Fig 2e): 1 fold
- Cdk4, fold increase over the basal level (Cdk4; 1 nM R1881 alone, Fig 2f): 1,1 fold
- Cdk4, fold increase over the basal level (Cdk4; 10 nM R1881 alone, Fig 2d): 1 fold
